Our source for the IC50 values is patent US20250346588A1, “IMIDAZOPYRIDINE AND OXAZOLOPYRIDINE DERIVATIVES AND ANALOGS THEREOF, METHODS OF PREPARATION THEREOF, METHODS OF HIF-1/2A PATHWAY INHIBITION, AND INDUCTION OF FERROPTOSIS” (KUDA THERAPEUTICS, INC., priority 2022, published 2025).

Where only a bound is given, the exact number is not on record here.

The target of the first assay is HIF-2α transcriptional activity. The experiment in a line: Hypoxia-responsive element-driven luciferase (HRE-Luc) screen. The class given is cell-based, human. The following applies: 786-0 ccRCC cells stably expressing HRE-Luc; 24 h treatment; range of IC50 values. The method, then: Screens for inhibitory activity of compounds described herein were performed using 786-0 ccRCC cells that stably express HRE-Luc: 5 copies of the hypoxia-responsive element (HRE) fused to the pGL3 luciferase reporter (Promega Corp, Madison WI). 786-0 cells are pVHL deficient and thus constitutively express HIF-2α independently of cellular oxygen tension. Since 786-0 cells lack HIF-1α, HRE-driven luciferase activity is primarily HIF-2α driven, and has been previously validated. Cells were maintained at log phase growth in […] (DMEM) with 10% FBS in a humidified incubator at 37° C. with 5% CO2. For screening assays, cells were seeded at a density of 4,000 cells in 50 μl of complete media/well in quadruplicate wells/point in a 96-well plate. After 24 h, 50 μl of a 2× concentration of test compound was added to each well. Compounds were diluted from a 5-10 mM stock in DMSO and final concentrations of DMSO in each well in controls and treated wells were kept constant at ≤0.6% DMSO. After 24 h treatment, luciferase activity was measured using the Steady-Glo Luciferase assay system (Promega Corp) according to the manufacturer's protocol. Cell viability was measured in quadruplicate parallel wells using resazurin as recommended by the manufacturer (R&D systems, Minneapolis, MN). Data for luciferase and resazurin were normalized to DMSO treated controls (defining 100%) and wells containing assay reagent but no cells (defining 0%) and graphed using the log inhibitor versus normalized response option in Graphpad Prism 9.3.1 software. Representative data determined using Steady-Glo luciferase and resazurin are shown in FIGS. 1A and 1B respectively, with error bars showing SD. Filled diamonds, empty squares and empty triangles indicate treatment with 3, 8 and 22 respectively with results for HRE-Luc shown in FIG. 1A.
What is called IC50 is the concentration that inhibits the measured activity by half. High values mean weaker potency, low ones greater potency. `COc1ccc(-c2nnc(Nc3nc4c(Cl)nccc4[nH]3)o2)cc1` [Compound 23, N-(4-chloro-1H-imidazo[4,5-c]74yridine-2-yl)-5-(4-methoxyphenyl)-1,3,4-oxadiazol-2-amine] registered a half-inhibitory concentration (IC50) of 10 to 50 µM.

The assay is the same for the next values; noted with them: Homo sapiens, 786-0, 24 h, 786-0 ccRCC cells stably expressing HRE-Luc; 24 h treatment; range of IC50 values.
Consider `COc1ccc(-c2nnc(Nc3nc4c(OC)nccc4[nH]3)o2)cc1OC` [Compound 26, N-(4-Methoxy-1H-imidazo[4,5-c]pyridin-2-yl)-5-(3,4-dimethoxyphenyl)-1,3,4-oxadiazol-2-amine], for which the IC50 was less than 10 µM.
The same measure, in the same setting: under `COc1nccc2[nH]c(Nc3nnc(-c4ccc5c(c4)OCO5)o3)nc12` [Compound 27, N-(4-Methoxy-1H-imidazo[4,5-c]pyridin-2-yl)-5-(benzo[d][1,3]dioxol-5-yl)-1,3,4-oxadiazol-2-amine] stands less than 10 µM.
On the same count and under the same terms, as for `COc1nccc2[nH]c(Nc3nnc(-c4ccc(N(C)C)cc4)o3)nc12` [Compound 28, N-(4-Methoxy-1H-imidazo[4,5-c]pyridin-2-yl)-5-(4-(dimethylamino)phenyl)-1,3,4-oxadiazol-2-amine], the figure is less than 10 µM.
On to `COc1nccc2[nH]c(Nc3nnc(-c4ccc(C)cc4)o3)nc12` [Compound 29, N-(4-methoxy-1H-imidazo[4,5-c]pyridin-2-yl)-5-(p-tolyl)-1,3,4-oxadiazol-2-amine], for which the IC50 was less than 10 µM.
On the same count and under the same terms, as for `COc1ccc(-c2nnc(Nc3nc4ncccc4o3)o2)cc1` [Compound 30, N-(5-(4-Methoxyphenyl)-1,3,4-oxadiazol-2-yl)oxazolo[4,5-b]pyridin-2-amine], the figure is less than 10 µM; as for `Fc1ccc(-c2nnc(Nc3nc4ccnc(-c5ccc6c(c5)OCO6)c4[nH]3)o2)cc1` [Compound 31, N-(4-(Benzo[d][1,3]dioxol-5-yl)-3H-imidazo[4,5-c]pyridin-2-yl)-5-(4-fluorophenyl)-1,3,4-oxadiazol-2-amine], 10 to 50 µM.
On the same count and under the same terms, as for `COc1nccc2[nH]c(Nc3nnc(-c4ccc(C#N)cc4)o3)nc12` [Compound 32, 4-(5-((4-Methoxy-1H-imidazo[4,5-c]pyridin-2-yl)amino)-1,3,4-oxadiazol-2-yl) benzonitrile], the figure is more than 10 µM.
The same measure, in the same setting: under `COc1ccc(-c2nnc(Nc3nc4c(OC)nccc4[nH]3)o2)cc1F` [Compound 33, 5-(3-Fluoro-4-methoxyphenyl)-N-(4-methoxy-1H-imidazo[4,5-c]pyridin-2-yl)-1,3,4-oxadiazol-2-amine] stands more than 10 µM.
In turn, `COc1ccc(-c2nnc(Nc3nc4c(OC)nccc4[nH]3)o2)cn1` [Compound 39, N-(4-Methoxy-1H-imidazo[4,5-c]pyridin-2-yl)-5-(6-methoxypyridin-3-yl)-1,3,4-oxadiazol-2-amine] returned a 50% inhibitory concentration (IC50) of less than 10 µM.
Still for that read-out and setting: as for `COc1nccc2[nH]c(Nc3nnc(-c4ccc(OC5CC5)cc4)o3)nc12` [Compound 41, 5-(4-Cyclopropoxyphenyl)-N-(4-methoxy-1H-imidazo[4,5-c]pyridin-2-yl)-1,3,4-oxadiazol-2-amine], the figure is less than 10 µM; as for `COc1nccc2[nH]c(Nc3nnc(-c4ccc(OC(C)C)cc4)o3)nc12` [Compound 42, 5-(4-Isopropoxyphenyl)-N-(4-methoxy-1H-imidazo[4,5-c]pyridin-2-yl)-1,3,4-oxadiazol-2-amine], 10 to 50 µM.
As to `COc1ccc(-c2csc(Nc3nc4c(OC)nc(C)cc4[nH]3)n2)cc1C#N` [Compound 53, 2-Methoxy-5-(2-((4-methoxy-6-methyl-1H-imidazo[4,5-c]pyridin-2-yl)amino)thiazol-4-yl)benzonitrile], the IC50 was more than 100 µM.
The same measure, in the same setting: under `COc1ccc(-c2nnc(Nc3nc4c(OC)nc(C)cc4[nH]3)o2)cc1OC` [Compound 55, 5-(3,4-dimethoxyphenyl)-N-(4-methoxy-6-methyl-1H-imidazo[4,5-c]pyridin-2-yl)-1,3,4-oxadiazol-2-amine] stands less than 10 µM; under `COc1ccc(-c2cnc(Nc3nc4c(OC)nccc4[nH]3)o2)cc1OC` [Compound 59, 5-(3,4-dimethoxyphenyl)-N-(4-methoxy-1H-imidazo[4,5-c]pyridin-2-yl)oxazol-2-amine], 50 to 100 µM; under `COc1nccc2[nH]c(Nc3nnc([C@H]4CC[C@@H](OC)CC4)o3)nc12` [Compound 62, N-(4-methoxy-1H-imidazo[4,5-c]pyridin-2-yl)-5-((1s,4s)-4-methoxycyclohexyl)-1,3,4-oxadiazol-2-amine], less than 10 µM.
On the same count and under the same terms, under `COc1nccc2[nH]c(Nc3nnc([C@H]4CC[C@H](OC)CC4)o3)nc12` [Compound 63, N-(4-methoxy-1H-imidazo[4,5-c]pyridin-2-yl)-5-((1r,4r)-4-methoxycyclohexyl)-1,3,4-oxadiazol-2-amine] stands less than 10 µM; under `COc1nccc2nc(Nc3nnc(C4CCN(C)CC4)o3)[nH]c12` [Compound 64, N-(4-methoxy-3H-imidazo[4,5-c]pyridin-2-yl)-5-(1-methylpiperidin-4-yl)-1,3,4-oxadiazol-2-amine], less than 10 µM.
On the same count and under the same terms, under `COc1nccc2nc(Nc3nnc(N4CC(C)OC(C)C4)o3)[nH]c12` (stereo not shown) [Compound 70, 5-(2,6-dimethylmorpholino)-N-(4-methoxy-3H-imidazo[4,5-c]pyridin-2-yl)-1,3,4-oxadiazol-2-amine] stands less than 10 µM.
In the case of `COc1cccc2nc(Nc3nnc(N4CCC(OC)CC4)o3)[nH]c12` [Compound 71, N-(7-methoxy-1H-benzo[d]imidazol-2-yl)-5-(4-methoxypiperidin-1-yl)-1,3,4-oxadiazol-2-amine], the half-maximal inhibitory concentration (IC50) is less than 10 µM.
Same read-out and setting: under `COc1cccc2nc(Nc3nnc(N4CCOCC4)o3)[nH]c12` [Compound 72, N-(7-methoxy-1H-benzo[d]imidazol-2-yl)-5-morpholino-1,3,4-oxadiazol-2-amine] stands 10 to 50 µM; under `COc1cccc2[nH]c(Nc3nnc(N4CCN(C)CC4)o3)nc12` [Compound 73, N-(4-methoxy-1H-benzo[d]imidazol-2-yl)-5-(4-methylpiperazin-1-yl)-1,3,4-oxadiazol-2-amine], 50 to 100 µM.
Still for that read-out and setting: under `COc1cccc2nc(Nc3nnc(C4CCN(C)CC4)o3)[nH]c12` [Compound 74, N-(7-methoxy-1H-benzo[d]imidazol-2-yl)-5-(1-methylpiperidin-4-yl)-1,3,4-oxadiazol-2-amine] stands 10 to 50 µM; under `COc1cccc2[nH]c(Nc3nnc(N4CCS(=O)(=O)CC4)o3)nc12` [Compound 76, 4-(5-((4-methoxy-1H-benzo[d]imidazol-2-yl)amino)-1,3,4-oxadiazol-2-yl)thiomorpholine 1,1-dioxide], more than 100 µM; under `COc1ccc(-c2nnc(Nc3nc4cccc(OC)c4[nH]3)o2)cc1` [Compound 82, N-(7-methoxy-1H-benzo[d]imidazol-2-yl)-5-(4-methoxyphenyl)-1,3,4-oxadiazol-2-amine], 10 to 50 µM.
`COc1ccc(-c2nnc(Nc3nc4c(OC)cccc4[nH]3)o2)c(C)c1` [Compound 83, N-(4-methoxy-1H-benzo[d]imidazol-2-yl)-5-(4-methoxy-2-methylphenyl)-1,3,4-oxadiazol-2-amine] had an IC50 of more than 100 µM.
In turn, `COc1ccc(-c2nnc(Nc3nc4c(OC)cccc4[nH]3)o2)cc1OC` [Compound 84, 5-(3,4-dimethoxyphenyl)-N-(4-methoxy-1H-benzo [d]imidazol-2-yl)-1,3,4-oxadiazol-2-amine] returned an IC50 of less than 10 µM.
Take `COc1ccc(-c2nnc(Nc3nc4c(OC)cccc4[nH]3)o2)cc1F` [Compound 85, 5-(3-fluoro-4-methoxyphenyl)-N-(4-methoxy-1H-benzo[d]imidazol-2-yl)-1,3,4-oxadiazol-2-amine]: the IC50 is more than 100 µM.
